Experimental data published in US20250288554A1, “PROPHYLACTIC OR THERAPEUTIC AGENT FOR NON-ALCOHOLIC STEATOHEPATITIS-DERIVED HEPATOCARCINOMA” (SEAKNIT Biological Technology Co., Ltd., priority 2022, published 2025).
“Also recorded” adds a separate entry of the source.

Key:
[1] = system: CD36 gene expression; assay: Suppression effect of taxifolin on CD36 gene expression in the liver tissue of high-fat diet-induced model mice (real-time PCR); assay type: in vivo, mouse; conditions: C57BL/6J male mice, corrected by GAPDH
Text: In Test Example 1, the taxifolin's action on the CD36 gene expression in the liver tissue was studied using the high-fat diet-induced model mice.
The C57BL/6J male mice (7 weeks old: CLEA Japan, Inc.) were acclimated for one week with a normal solid diet (MF: Oriental Yeast Co., Ltd.) and with freely available drinking water.
The 8 weeks old mice after the acclimation were divided into 4 groups with 5 mice each, namely, the group of those raised with a normal solid diet for 12 weeks until 20 weeks old (hereinafter, “ND Group”), the group raised with a high fat diet (HFD-60 (506 kcal/100 g; 60% fat content in terms of energy rate): Oriental Yeast Co., Ltd.) (hereinafter, “HFD Group”), the group raised with the high fat diet containing 1% by weight of taxifolin (hereinafter, “HFD+1% TX-administered Group”), and the group raised with the high fat diet containing 3% by weight of taxifolin (hereinafter, “HFD+3% TX-administered Group”).
The mice raised until 20 weeks old were anesthetized with ether, and after they were euthanized by cervical dislocation, the liver of each individual was removed. […]
The mRNA expression amount of CD36 was corrected by the expression amount of glyceraldehyde-3-phosphate dehydrogenase (GAPDH), and this was comparatively quantified using the ΔΔCt method. […]

[2] = system: HepG2 cell; assay: Taxifolin's suppressing action on fatty acid capturing in HepG2 cells (Oil Red O lipid droplet staining); assay type: cell-based, human; conditions: 24 hours; for capturing amount of palmitic acid by the HepG2 cells: 400 μm palmitic acid, vs Group B without taxifolin
Protocol: In Test example 2, the taxifolin's action on fatty acid capturing was studied by using the HepG2 cell, which is the cell strain derived from human hepatocarcinoma.
The HepG2 cells were inoculated with the density of 0.2×10^6 cells/well on the plate having 24 wells, and they were cultured using the 10% FBS-containing DMEM medium until the HepG2 cells covered 70 to 80% of the surface in the culture vessel. The HepG2 cells cultured in the culture medium were washed with the phosphate buffer (PBS), then cultured for 24 hours in the serum-free medium containing 400 μm of palmitic acid, taxifolin with various concentrations, and 1% BSA, with n=6 in each Group A to E, as described in Table 2.
The glucose concentration contained in the culture medium and in the serum-free medium were made 0%, 0.1% (low glucose), or 0.45% (high glucose).
The HepG2 cells that had been cultured in the serum-free medium for 24 hours were immobilized by 4% paraformaldehyde after washing with PBS. The resulting immobilized HepG2 cells were treated with 60% isopropanol, and then the lipid drops in the cells were stained using Oil Red O (Wako Pure Chemical Industries, Ltd.). Thereafter, it was washed with 60% isopropanol and then with PBS. The resulting washed HepG2 cells were treated with 100% isopropanol to elute the Oil Red O out. The resulting eluted Oil Red O was recovered in the plate with 96 wells, and then the absorbance (550 nm) was measured using the microplate reader (Multiscan SkyHigh; Thermo Fisher Scientific, Inc.).
The statistical analysis was conducted using Student t-test.
In FIG. 2, the capturing amount of the fatty acid is expressed by the average value of each group±standard error.
FIG. 2 indicates the capturing amount of the fatty acid in the HepG2 cells in each Group. The capturing amount in the HepG2 cells in each Group A to E is expressed by the percentage relative to Group A.

[3] = system: MC4R deficient mouse; assay: Prophylactic effect of taxifolin on hepatocarcinoma in MC4R deficient mouse loaded with a high fat diet; assay type: in vivo; conditions: high fat diet containing 3% of taxifolin from 20 to 50 weeks old, vs reference group
Text: In Test Example 3, the taxifolin's action on the hepatocarcinoma by using the melanocortin-4 receptor deficient mouse (hereinafter, “MC4R deficient mouse”) loaded with a high fat diet. On the basis of the description in JP 2020-065454 A and JP 2017-006022 A, the MC4R deficient mouse provided by Joel K. Elmquist at the Medical Center in Texas University was used (Cell, 2005; 123(3): 493-505). The genetic background of the MC4R deficient mouse is the C57BL/6J mouse. These mice were kept under the controlled condition of temperature, humidity, and lighting time (12 hours cycle of dark and bright), unless otherwise specifically noted. After weaning (4 weeks after the birth), they were raised with a high fat diet (D12492 (524 kcal/100 g; 60% fat content in terms of energy rate); Research Diets, Inc.) and with freely available drinking water. All the MC4R mice loaded with the high fat diet had the NASH-like symptom by 20 weeks old; it has been known that they develop hepatocarcinoma thereafter (Am. J. Pathol., 2011; 179(5):2454-2463). The MC4R deficient 20 weeks old mice loaded with the high fat diet were divided into two groups; the reference group (n=13) that is continued to be fed with the same high fat diet until 50 weeks old, and the taxifolin-administered group (n=12) that is fed with the high fat diet containing 3% of taxifolin. The mice raised until 50 weeks old were euthanized by deep anesthesia using three mixed anesthetic agents, and then, the liver of each individual was removed. The number of the precancerous symptoms (Foci) in the removed liver, the number of the tumors having the precancerous symptom clustered, and the size of the tumor were measured. The statistical analysis was conducted using Student t-test. In FIG. 3, the number of the precancerous symptoms, the number of the tumors having the precancerous symptom clustered, and the size of the tumor are expressed by the average value of each group±standard error.

O=C1c2c(O)cc(O)cc2O[C@H](c2ccc(O)c(O)c2)[C@H]1O [taxifolin]
mRNA expression amount of CD36 in the liver tissue ([1]; high fat diet containing 1% by weight of taxifolin for 12 weeks (HFD+1% TX-administered Group) vs HFD Group): significantly decreased
mRNA expression amount of CD36 in the liver tissue ([1]; high fat diet containing 3% by weight of taxifolin for 12 weeks (HFD+3% TX-administered Group) vs HFD Group): significantly decreased; also recorded: suppressed to the same level as the ND Group
concentration at which taxifolin suppressed the fatty acid capturing in the liver cells ([2]; HepG2 cells, palmitic acid, lowest concentration tested): 0.1 nM
capturing amount of palmitic acid by the HepG2 cells ([2]; high glucose (0.45%), taxifolin 0.1 nM to 1 μM): same tendency
capturing amount of palmitic acid by the HepG2 cells ([2]; low glucose (0.1%), taxifolin 0.1 nM or more): significantly decreased
number of the precancerous symptoms (Foci) in the liver [3]: decreased drastically
number of the tumors having the precancerous symptom clustered [3]: decreased drastically
size of the tumor between 1 and 5 mm [3]: decreased significantly
